# EP0934300B1, “THE PREPARATION AND USE OF ORTHO-S[…] AS MATRIX METALLOPROTEINASE AND TACE INHIBITORS” (American Cyanamid Company, priority 1996, dated 1998)
# Assays:
# Format in all cases: biochemical
# MMP-1 = molecular target: T1, MMP-1 (Homo sapiens, UniProt P03956); test: MMP-1 inhibition (thiopeptide or fluorescent peptide substrate assay); conditions: for inhibition at 1 µM: read-out: MMP-1 % inhibition, concentration 1 µM
# T1 sequence (P03956 100-469): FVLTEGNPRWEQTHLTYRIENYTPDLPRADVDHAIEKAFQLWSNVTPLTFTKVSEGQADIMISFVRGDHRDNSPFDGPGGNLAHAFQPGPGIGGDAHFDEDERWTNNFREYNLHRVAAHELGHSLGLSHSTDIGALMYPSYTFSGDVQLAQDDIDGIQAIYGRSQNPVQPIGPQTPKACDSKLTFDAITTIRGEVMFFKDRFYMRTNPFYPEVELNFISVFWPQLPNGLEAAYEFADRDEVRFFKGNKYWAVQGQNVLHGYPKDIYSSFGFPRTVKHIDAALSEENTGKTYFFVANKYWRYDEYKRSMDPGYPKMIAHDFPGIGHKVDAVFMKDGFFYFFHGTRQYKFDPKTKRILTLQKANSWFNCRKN
# Procedure: (§1) These assays are based on the cleavage of a thiopeptide substrates such as Ac-Pro-Leu-Gly(2mercapto-4 methyl-pentanoyl)-Leu-Gly-OEt by the matrix metalloproteinases MMP-1, MMP-13 (collagenases) or MMP-9 (gelatinase), which results in the release of a substrate product that reacts colorimetrically with DTNB (5,5'-dithiobis(2-nitro-benzoic acid)). The enzyme activity is measured by the rate of the color increase. The thiopeptide substrate is made up fresh as a 20 mM stock in 100% DMSO and the DTNB is dissolved in 100% DMSO as a 100 mM stock and stored in the dark at room temperature. Both the substrate and DTNB are diluted together to 1 mM with substrate buffer (50 mM HEPES pH 7.5, 5 mM CaCl2) before use. The stock of enzyme is diluted with assay buffer (50 mM HEPES, pH 7.5, 5 mM CaCl2, 0.02% Brij) to the desired final concentration.
# (§2) Alternatively, a fluorescent peptide substrate is used. In this assay, the peptide substrate contains a fluorescent group and a quenching group. Upon cleavage of the substrate by an MMP, the fluorescence that is generated is quantitated on the fluorescence plate reader. The assay is run in HCBC assay buffer (50mM HEPES, pH 7.0, 5 mM Ca^+2, 0.02% Brij, 0.5% Cysteine), with human recombinant MMP-1, MMP-9, or MMP-13. The substrate is dissolved in methanol and stored frozen in 1 mM aliquots. For the assay, substrate and enzymes are diluted in HCBC buffer to the desired concentrations. Compounds are added to the 96 well plate containing enzyme and the reaction is started by the addition of substrate. The reaction is read (excitation 340 nm, emission 444 nm) for 10 min. and the increase in fluorescence over time is plotted as a linear line.
# (§3) For either the thiopeptide or fluorescent peptide assays, the slope of the line is calculated and represents the reaction rate. The linearity of the reaction rate is confirmed (r^2 >0.85). The mean (x±sem) of the control rate is calculated and compared for statistical significance (p<0.05) with drug-treated rates using Dunnett's multiple comparison test.
# MMP-13 = MMP-13 (Homo sapiens, UniProt P45452); test: MMP-13 inhibition (thiopeptide or fluorescent peptide substrate assay)
# Procedure: Alternatively, a fluorescent peptide substrate is used. In this assay, the peptide substrate contains a fluorescent group and a quenching group. Upon cleavage of the substrate by an MMP, the fluorescence that is generated is quantitated on the fluorescence plate reader. […] The substrate is dissolved in methanol and stored frozen in 1 mM aliquots. For the assay, substrate and enzymes are diluted in HCBC buffer to the desired concentrations. Compounds are added to the 96 well plate containing enzyme and the reaction is started by the addition of substrate.
# MMP-9 = MMP-9 (Homo sapiens, UniProt P14780); test: MMP-9 inhibition (thiopeptide or fluorescent peptide substrate assay); conditions: for inhibition at 10 µM: concentration 10 µM
# Chain of MMP-9 (P14780 94-707): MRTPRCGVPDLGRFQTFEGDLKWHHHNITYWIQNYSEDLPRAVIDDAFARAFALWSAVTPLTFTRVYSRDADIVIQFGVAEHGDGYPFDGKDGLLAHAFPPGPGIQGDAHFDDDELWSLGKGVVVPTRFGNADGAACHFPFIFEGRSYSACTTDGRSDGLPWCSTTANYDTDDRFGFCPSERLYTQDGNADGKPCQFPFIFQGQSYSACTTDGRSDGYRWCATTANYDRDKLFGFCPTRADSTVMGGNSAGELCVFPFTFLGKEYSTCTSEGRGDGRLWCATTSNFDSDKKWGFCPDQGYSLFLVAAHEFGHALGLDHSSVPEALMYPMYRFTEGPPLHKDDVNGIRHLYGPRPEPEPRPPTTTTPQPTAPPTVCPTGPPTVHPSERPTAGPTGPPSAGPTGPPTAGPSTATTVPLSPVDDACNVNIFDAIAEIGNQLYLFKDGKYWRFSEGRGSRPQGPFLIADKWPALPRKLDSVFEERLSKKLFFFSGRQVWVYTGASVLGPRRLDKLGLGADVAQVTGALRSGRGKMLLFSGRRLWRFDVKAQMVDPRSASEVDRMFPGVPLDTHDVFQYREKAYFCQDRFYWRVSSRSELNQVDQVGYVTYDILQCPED
# Procedure: as §1, §2, §3
# TACE = molecular target: T2, TACE (Homo sapiens, UniProt P78536); test: TACE inhibition (fluorescent peptidyl substrate assay)
# T2 construct: purchased Immunex
# T2 sequence (P78536 215-824): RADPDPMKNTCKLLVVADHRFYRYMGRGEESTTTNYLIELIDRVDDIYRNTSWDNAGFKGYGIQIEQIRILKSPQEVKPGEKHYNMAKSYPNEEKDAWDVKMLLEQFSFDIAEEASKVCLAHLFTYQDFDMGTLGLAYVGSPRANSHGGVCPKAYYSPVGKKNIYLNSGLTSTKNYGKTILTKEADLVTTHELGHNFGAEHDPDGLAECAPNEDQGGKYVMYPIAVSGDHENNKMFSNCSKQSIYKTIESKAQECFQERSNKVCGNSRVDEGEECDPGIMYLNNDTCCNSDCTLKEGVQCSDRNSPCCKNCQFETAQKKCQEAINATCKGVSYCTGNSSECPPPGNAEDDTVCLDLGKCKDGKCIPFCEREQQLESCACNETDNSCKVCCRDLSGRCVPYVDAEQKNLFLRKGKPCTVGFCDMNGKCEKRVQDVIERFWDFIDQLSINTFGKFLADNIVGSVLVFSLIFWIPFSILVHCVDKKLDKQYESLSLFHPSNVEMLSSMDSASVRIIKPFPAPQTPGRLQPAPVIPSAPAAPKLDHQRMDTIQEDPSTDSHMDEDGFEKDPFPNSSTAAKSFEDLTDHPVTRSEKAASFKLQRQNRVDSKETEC
# Procedure: Using 96-well black microtiter plates, each well receives a solution composed of 10 µL TACE (Immunex, final concentration 1µg/mL), 70µL Tris buffer, pH 7.4 containing 10% glycerol (final concentration 10 mM), and 10 µL of test compound solution in DMSO (final concentration 1µM, DMSO concentration <1%) and incubated for 10 minutes at room temperature.
# The reaction is read (excitation 340 nm, emission 420 nm) for 10 min. and the increase in fluorescence over time is plotted as a linear line. The slope of the line is calculated and represents the reaction rate.
smiles,measurement,setting,value
"C#Cc1scc(C(=O)NO)c1N(Cc1ccccc1)S(=O)(=O)c1ccc(OC)cc1 [Example 23, 4-[Benzyl-(4-methoxy-benzenesulfonyl)-amino]-5-ethynyl-thiophene-3-carboxylic acid hydroxyamide]",inhibition at 1 µM,MMP-1,48.9%
same,inhibition at 300 µM,MMP-13; read-out: MMP-13 % inhibition,35%
same,inhibition at 300 µM,"MMP-9; read-out: MMP-9 % inhibition, concentration 300 µM",38.4%
"COc1ccc(S(=O)(=O)N(Cc2ccccc2)c2c(C)csc2C(=O)NO)cc1 [Example 16, 3-[Benzyl-(4-methoxy-benzenesulfonyl)-amino]-4-methyl-thiophene-2-carboxylic acid hydroxyamide]",IC50,MMP-9,104 nM
"COc1ccc(S(=O)(=O)N(Cc2ccccc2)c2c(C(=O)NO)csc2Br)cc1 [Example 20, 4-[Benzyl-(4-methoxy-benzenesulfonyl)-amino]-5-bromo-thiophene-3-carboxylic acid hydroxyamide]",IC50,MMP-1,638 nM
same,IC50,MMP-13,472 nM
same,IC50,MMP-9,236 nM
"COc1ccc(S(=O)(=O)N(Cc2ccccc2)c2c(C(=O)NO)cc(OC)nc2OC)cc1 [Example 33, 3-[Benzyl-(4-methoxy-benzenesulfonyl)-amino]-N-hydroxy-2,6-dimethoxyisonicotinamide]",IC50,MMP-13,47 nM
same,IC50,MMP-9,15 nM
same,IC50,TACE,294 nM
"COc1ccc(S(=O)(=O)N(Cc2cccnc2)c2c(C(=O)NO)csc2Br)cc1 [Example 26, 5-Bromo-4-[(4-methoxy-benzenesulfonyl)-pyridin-3-ylmethyl-amino]-thiophene-3-carboxylic acid hydroxyamide]",IC50,MMP-1,1000 nM
same,IC50,MMP-9,70 nM
same,inhibition at 1 µM,TACE; concentration 1 µM,42%
"COc1ccc(S(=O)(=O)N(Cc2ccccc2)c2cscc2C(=O)NO)cc1 [Example 14, 4-[Benzyl-(4-methoxy-benzenesulfonyl)-amino]-thiophene-3-carboxylic acid hydroxyamide]",inhibition at 1 µM,MMP-1,40%
same,inhibition at 10 µM,MMP-9; read-out: MMP-9 % inhibition,66.8%
"COc1ccc(S(=O)(=O)N(Cc2ccccc2)c2ccsc2C(=O)NO)cc1 [Example 13, 3-[Benzyl-(4-methoxy-benzenesulfonyl)-amino]-thiophene-2-carboxylic acid hydroxyamide]",inhibition at 1 µM,MMP-1,19.3%
same,inhibition at 10 µM,MMP-9; read-out: MMP-9 % inhibition,57.3%
"COc1ccc(S(=O)(=O)N(Cc2ccccc2)c2c(C(=O)NO)cnn2C)cc1 [Example 15, 5-[Benzyl-(4-methoxy-benzenesulfonyl)-amino]-1-methyl-1H-pyrazole-4-carboxylic acid hydroxyamide]",inhibition at 1 µM,MMP-1,22.1%
same,IC50,MMP-9,930 nM
